Laboratory results: PMC5011961, “In vitro antimicrobial activities of animal-used quinoxaline 1,4-di-N-oxides against mycobacteria, mycoplasma and fungi” (BMC Veterinary Research, 2016)
Converted amounts (≈) assume the structure as drawn. Read-outs that look alike come from different tables or passages of the source.

How the values were obtained:
[1] = system: M. bovis ATCC 19210; test: microbe, parasite or virus in culture; assay type: cell-based, Mycobacterium bovis; conditions: Mycobacterium tuberculosis variant bovis, ATCC19210
[2] = system: M. tuberculosis H37Rv ATCC 27294; test: Microdilution alamar blue assay (MABA); assay type: cell-based, Mycobacterium tuberculosis; conditions: Mycobacterium tuberculosis, read-out: MIC
[3] = system: Mycoplasma gallisepticum; test: Combination susceptibility assay (checkerboard method); assay type: cell-based; conditions: combined with tetracyclines (tetracycline and doxycycline), M. gallisepticum
[4] = system: M. tuberculosis complex; test: Combination susceptibility assay (checkerboard method), overall statements; assay type: cell-based; conditions: combined with rifampicin
[5] = system: PRRSV; test: Antiviral assay (CPE/MTT; adsorption inhibition, infection inhibition, virucidal); assay type: cell-based, porcine reproductive and respiratory syndrome virus; parameters: key to IC50: “--”represent not detected owing to the low inhibition ratio; conditions: PRRSV, mean±SD of four experiments
[6] = system: PPV; test: as above; assay type: cell-based, porcine parvovirus; parameters: key to IC50: “--” represent not detected owing to the low inhibition ratio; conditions: PPV, mean±SD of four experiments
[7] = system: IBDV; test: as above; assay type: cell-based, infectious bursal disease virus; parameters: key to IC50: “--” represent not detected owing to the low inhibition ratio; conditions: IBDV, mean±SD of four experiments
[8] = system: M. tuberculosis H37Rv ATCC 27294; parameters: method as in PMID 14561478; conditions: previous report; cited from earlier work
[9] = system: PK-15 cells; test: Cytotoxicity assay (MTT)
[10] = system: Marc-145 cells; test: Cytotoxicity assay (MTT)
[11] = system: DF-1 cells; test: Cytotoxicity assay (MTT)
[12] = system: M. tuberculosis H37Ra ATCC 25177; test: Microdilution alamar blue assay (MABA)
Description: Briefly, each of the above Mycobacterium strains was cultured at 37 °C in Middlebrook 7H9 broth supplemented with 0.2 % glycerol and 10 % Oleic Acid-Albumin-Dextrose-Catalase (Sigma, St Louis, MO, USA) until logarithmic growth was reached. About 6 × 10^6 CFU/mL inoculum of Mycobacterium strain was then added to the two fold serially diluted drug samples. The final concentration of DMSO in all assays was 2.5 % or less and this dilution also served as solvent control. The samples were assayed in triplicate. All tests were carried out in sterile flat bottom 96-well microplates. Each microplate was incubated for 5 days at 37 °C in a sealed plastic CO2-permeable bag. After 7 days of incubation, 32 μL of a mixture of freshly prepared Alamar Blue solution and 20 % sterile Tween-80 at 1:1 (v/v) were added to the growth-control well. The microplates were incubated at 37 °C for 24 h. […] A well-defined pink color was interpreted as positive bacterial growth, whereas a blue color indicated an absence of growth.

[13] = system: M. gallisepticum; test: Antimycoplasma assay, MIC in microtiter plates; conditions: Mycoplasmoides gallisepticum
Description: (§1) Briefly, 96-well microtiter Sensititre plates containing stabilized and freeze-dried antimicrobials were used. Three wells on each plate were set as antimicrobial free growth control. Freshly thawed mycoplasma isolates with known titers were diluted in liquid medium until the number of organisms reached 10^4 color changing units/mL. 50 μL of the diluted culture was transferred into each well of the Sensititre plates. […] The plates were sealed using an adhesive foil and incubated at 36 °C for 14 days. The growth of M. hyopneumoniae was observed daily when the color of the medium changed from red to yellow (phenol red indicator), and the initial and final MICs were recorded.

[14] = system: M. hyopneumoniae; test: Antimycoplasma assay, MIC in microtiter plates; conditions: Mesomycoplasma hyopneumoniae
Description: as §1

[15] = system: Microsporum canis; test: Antifungal assay, macrobroth 2-fold serial dilution MIC
[16] = system: Trichophyton rubrum; test: as above
[17] = system: Epidermophyton floccosum; test: as above
[18] = system: Candida albicans; test: as above
[19] = system: Candida tropicalis; test: as above; conditions: Candida tropicalis
[20] = system: Candida parapsilosis; test: as above; conditions: Lodderomyces parapsilosis
[21] = system: Cryptococcus neoformans; test: as above
[22] = system: Aspergillus fumigatus; test: as above

SMILES: CC(=O)c1c(C)[n+]([O-])c2ccccc2[n+]1[O-] [MEQ, mequindox]
- MIC [1]: 8 µg/mL (≈ 36.7 µM)
- MIC [2]: 4 µg/mL (≈ 18.3 µM)
- Combined effect [3]: additive (0.5 to 1, additive)
- FIC [4]: 0.75
- IC50 ([5]; Inactivation): --
- IC50 ([5]; Prevention): --
- IC50 ([5]; Treatment): --
- IC50 ([6]; Inactivation): --
- IC50 ([6]; Prevention): --
- IC50 ([6]; Treatment): --
- IC50 ([7]; Inactivation): --
- IC50 ([7]; Prevention): --
- IC50 ([7]; Treatment): --
- MIC [8]: 3.13 µg/mL (≈ 14.3 µM)
- TC50 ([9]; PK-15, 72 h, MTT, mean ± SD, n = 4): 17.86 ± 1.28 µg/mL (≈ 81.8 µM)
- MNTC ([9]; PK-15, maximum non-cytotoxic concentration (90 % cell viability)): 0.5 µg/mL
- TC50 ([10]; Marc-145, 72 h, MTT, mean ± SD, n = 4): 41.28 ± 1.28 µg/mL (≈ 189 µM)
- MNTC ([10]; Marc-145, maximum non-cytotoxic concentration (90 % cell viability)): 1.0 µg/mL
- TC50 ([11]; DF-1, 72 h, MTT, mean ± SD, n = 4): 40.01 ± 1.27 µg/mL (≈ 183 µM)
- MNTC ([11]; DF-1, maximum non-cytotoxic concentration (90 % cell viability)): 2.0 µg/mL
- MIC [12]: 32 µg/mL (≈ 147 µM)
- MIC ([13]; M. gallisepticum BG44T (10^4ccu/mL)): 16 µg/mL (≈ 73.3 µM)
- MIC ([13]; M. gallisepticum MG-HS (10^6ccu/mL)): 32 µg/mL (≈ 147 µM)
- MIC ([13]; M. gallisepticum PG31 (10^8 ccu/mL)): 16 µg/mL (≈ 73.3 µM)
- MIC [14]: 32 µg/mL (≈ 147 µM)
- MIC [15]: > 64 µg/mL
- MIC ([15]; CBS113480): > 64 µg/mL
- MIC [16]: > 64 µg/mL
- MIC ([16]; ATCC4438): > 64 µg/mL
- MIC [17]: > 64 µg/mL
- MIC ([17]; CBS566094): 64 µg/mL (≈ 293 µM)
- MIC ([18]; C. albicans 2.4122, deep fungi): 32 µg/mL (≈ 147 µM)
- MIC ([18]; C. albicans 90028, deep fungi): 64 µg/mL (≈ 293 µM)
- MIC ([19]; C. tropicalis 2.2735, deep fungi): 64 µg/mL (≈ 293 µM)
- MIC ([19]; C. tropicalis 7349, deep fungi): > 64 µg/mL
- MIC [20]: 64 µg/mL (≈ 293 µM)
- MIC [21]: 32 µg/mL (≈ 147 µM)
- MIC ([22]; A. fumigatus 3.5301, deep fungi): > 64 µg/mL
- MIC ([22]; A. fumigatus 3.5352, deep fungi): > 64 µg/mL
